Holding throughout (assay type): cell-based
One test concerns the target T1, human TLR9 (Homo sapiens, UniProt Q9NR96).
T1 construct: host or cells: HEK-Blue cells (HEK293-derived reporter line)
T1 sequence (Q9NR96 26-1032): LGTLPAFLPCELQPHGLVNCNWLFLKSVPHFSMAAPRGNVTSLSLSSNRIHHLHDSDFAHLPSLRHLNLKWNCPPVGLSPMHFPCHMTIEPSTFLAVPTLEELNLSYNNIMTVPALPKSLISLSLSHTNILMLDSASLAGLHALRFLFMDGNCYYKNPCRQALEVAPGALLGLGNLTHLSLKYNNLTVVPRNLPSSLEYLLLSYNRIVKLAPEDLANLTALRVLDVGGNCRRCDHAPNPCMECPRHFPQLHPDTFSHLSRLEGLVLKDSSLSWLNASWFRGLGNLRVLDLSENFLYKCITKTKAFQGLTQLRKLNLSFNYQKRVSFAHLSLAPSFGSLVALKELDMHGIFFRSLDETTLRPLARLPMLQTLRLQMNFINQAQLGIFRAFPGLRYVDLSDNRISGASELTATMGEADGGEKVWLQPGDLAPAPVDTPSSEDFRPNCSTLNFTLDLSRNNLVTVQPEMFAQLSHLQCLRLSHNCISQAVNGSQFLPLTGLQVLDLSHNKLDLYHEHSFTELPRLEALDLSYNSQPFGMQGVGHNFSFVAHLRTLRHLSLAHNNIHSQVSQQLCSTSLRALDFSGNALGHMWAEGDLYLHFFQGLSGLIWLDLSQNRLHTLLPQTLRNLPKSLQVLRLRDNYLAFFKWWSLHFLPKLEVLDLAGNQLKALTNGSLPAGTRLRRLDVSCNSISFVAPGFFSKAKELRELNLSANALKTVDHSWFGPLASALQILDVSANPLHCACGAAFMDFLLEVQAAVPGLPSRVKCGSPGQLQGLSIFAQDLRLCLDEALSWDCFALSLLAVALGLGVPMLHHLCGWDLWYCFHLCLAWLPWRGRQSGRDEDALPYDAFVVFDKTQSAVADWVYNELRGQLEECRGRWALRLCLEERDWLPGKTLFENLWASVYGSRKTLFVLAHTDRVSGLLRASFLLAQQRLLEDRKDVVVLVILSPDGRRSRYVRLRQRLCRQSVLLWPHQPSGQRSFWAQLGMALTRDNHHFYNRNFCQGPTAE
Description: TLR9 inhibition reporter assay (HEK-Blue cells, secreted embryonic alkaline phosphatase reporter). The method in brief:
(§1)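 Agonist-driven SEAP output was measured in HEK-Blue reporter cells carrying human TLR7 (gardiquimod 7.5 μM), TLR8 (R848 15.9 μM) or TLR9 (ODN2006 5 nM). Compounds at 0.05 nM–50 μM final were added 30 min before stimulation at room temperature. After 22 h at 37 °C, percent inhibition was taken against agonist/DMSO wells and a reference inhibitor.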

The target of the next test is T2, human TLR7 (Homo sapiens, UniProt Q9NYK1).
T2 construct: host or cells: HEK-Blue cells (HEK293-derived reporter line)
T2 sequence (Q9NYK1 27-1049): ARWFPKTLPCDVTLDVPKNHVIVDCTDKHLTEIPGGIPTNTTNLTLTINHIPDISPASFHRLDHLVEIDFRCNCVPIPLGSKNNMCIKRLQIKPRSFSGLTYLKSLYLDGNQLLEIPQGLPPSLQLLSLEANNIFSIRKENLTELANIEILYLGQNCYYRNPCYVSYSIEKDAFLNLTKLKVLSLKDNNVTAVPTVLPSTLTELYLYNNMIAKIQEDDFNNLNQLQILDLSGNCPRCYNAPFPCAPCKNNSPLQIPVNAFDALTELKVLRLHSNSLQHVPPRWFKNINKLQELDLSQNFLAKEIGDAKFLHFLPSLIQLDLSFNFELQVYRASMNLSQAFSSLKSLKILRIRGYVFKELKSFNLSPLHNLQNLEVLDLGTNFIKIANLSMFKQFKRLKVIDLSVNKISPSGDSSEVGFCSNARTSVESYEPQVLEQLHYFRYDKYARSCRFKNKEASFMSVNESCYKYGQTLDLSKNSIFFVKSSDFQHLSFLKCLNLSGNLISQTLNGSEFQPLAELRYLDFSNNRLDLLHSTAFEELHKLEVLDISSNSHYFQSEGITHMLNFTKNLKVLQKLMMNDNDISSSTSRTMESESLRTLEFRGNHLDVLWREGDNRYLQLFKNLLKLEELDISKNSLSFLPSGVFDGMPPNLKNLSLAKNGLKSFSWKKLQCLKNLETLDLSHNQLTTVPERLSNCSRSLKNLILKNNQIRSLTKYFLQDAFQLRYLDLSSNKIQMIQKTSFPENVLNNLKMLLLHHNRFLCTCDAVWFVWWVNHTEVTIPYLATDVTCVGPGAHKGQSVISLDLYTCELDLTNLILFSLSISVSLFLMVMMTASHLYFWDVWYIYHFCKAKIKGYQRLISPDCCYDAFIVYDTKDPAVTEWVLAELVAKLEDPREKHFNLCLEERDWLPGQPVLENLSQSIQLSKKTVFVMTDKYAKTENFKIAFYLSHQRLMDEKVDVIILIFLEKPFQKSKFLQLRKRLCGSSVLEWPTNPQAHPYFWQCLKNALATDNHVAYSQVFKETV
Description: TLR7 inhibition reporter assay (HEK-Blue cells, secreted embryonic alkaline phosphatase reporter). The following applies: HEK-Blue cells overexpressing human TLR7, stimulated with gardiquimod 7.5 μM; read-out: TLR 7 IC50. The essentials: as §1

Another test deals with T3, human TLR8 (Homo sapiens, UniProt Q9NR97).
T3 construct: host or cells: HEK-Blue cells (HEK293-derived reporter line)
T3 sequence (Q9NR97 27-1041): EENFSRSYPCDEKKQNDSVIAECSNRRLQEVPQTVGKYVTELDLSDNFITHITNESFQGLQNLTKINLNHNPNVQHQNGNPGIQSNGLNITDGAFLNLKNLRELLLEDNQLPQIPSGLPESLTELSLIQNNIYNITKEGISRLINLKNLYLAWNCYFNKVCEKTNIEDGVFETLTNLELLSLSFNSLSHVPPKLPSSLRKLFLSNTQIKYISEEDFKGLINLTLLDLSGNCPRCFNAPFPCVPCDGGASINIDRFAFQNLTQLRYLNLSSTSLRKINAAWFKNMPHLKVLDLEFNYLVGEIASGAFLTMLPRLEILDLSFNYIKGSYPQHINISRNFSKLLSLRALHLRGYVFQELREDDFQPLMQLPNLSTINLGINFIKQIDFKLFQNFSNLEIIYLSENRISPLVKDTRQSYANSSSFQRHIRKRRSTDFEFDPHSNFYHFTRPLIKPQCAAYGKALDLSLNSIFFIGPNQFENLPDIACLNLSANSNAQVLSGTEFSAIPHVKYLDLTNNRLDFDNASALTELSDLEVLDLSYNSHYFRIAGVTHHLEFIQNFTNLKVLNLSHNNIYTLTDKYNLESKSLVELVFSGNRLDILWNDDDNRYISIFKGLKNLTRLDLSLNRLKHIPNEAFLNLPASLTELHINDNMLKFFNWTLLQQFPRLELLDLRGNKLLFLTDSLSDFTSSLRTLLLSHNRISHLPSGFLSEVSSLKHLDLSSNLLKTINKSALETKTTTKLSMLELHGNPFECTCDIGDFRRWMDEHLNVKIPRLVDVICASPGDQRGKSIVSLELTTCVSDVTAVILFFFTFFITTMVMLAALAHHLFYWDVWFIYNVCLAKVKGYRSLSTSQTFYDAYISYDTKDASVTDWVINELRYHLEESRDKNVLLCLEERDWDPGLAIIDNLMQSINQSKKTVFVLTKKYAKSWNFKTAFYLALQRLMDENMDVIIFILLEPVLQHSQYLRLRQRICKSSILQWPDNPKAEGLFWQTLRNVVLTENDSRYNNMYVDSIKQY
Put plainly: TLR8 inhibition reporter assay (HEK-Blue cells, secreted embryonic alkaline phosphatase reporter). The following applies: HEK-Blue cells overexpressing human TLR8, stimulated with R848 15.9 μM; read-out: TLR 8 IC50. The essentials:
as §1
(In general: In a reporter assay the amount or activity of a reporter protein is the signal.)

Where [1] appears, read: HEK-Blue cells overexpressing human TLR9, stimulated with ODN2006 5 nM, read-out: TLR 9 IC50.
Where [2] appears, read: HEK-Blue human TLR9 reporter cells.
Where [3] appears, read: HEK-Blue cells overexpressing human TLR9, stimulated with ODN2006 5 nM, 22 hour incubation, reporter readout.

The structures appear in SMILES notation. Like-named read-outs stand apart in the source and are kept apart here.

The values below come from patent US12492188B2, “1H-benzo[D]imidazole derivatives as TLR9 inhibitors for the treatment of fibrosis” (BRISTOL-MYERS SQUIBB COMPANY, priority 2020, dated 2025).

A word on the IC50: it is the midpoint of a concentration-inhibition curve. `Cc1cc(C2CCN(C3CC4CCC(C3)N4C3CCC3)CC2)cc2c1nc(-c1ccc(S(C)(=O)=O)cc1)n2C` (single isomer, unassigned) [Example 153, 6-(1-(8-cyclobutyl-8-azabicyclo[3.2.1]octan-3-yl)piperidin-4-yl)-1,4-dimethyl-2-(4-(methylsulfonyl)phenyl)-1H-benzo[d]imidazole]: the IC50 against human TLR9 was 0.12 µM; at human TLR9 (setting [1]), 0.0123 µM; on human TLR7, 14.3 µM; at human TLR8, above 25 µM.

For the compound `Cn1c(-c2ccc(S(C)(=O)=O)cc2)nc2cc(C3CCN(C4CCN(C5CCC5)CC4)CC3)cc(F)c21` [Example 205, 5-(1′-cyclobutyl-[1,4′-bipiperidin]-4-yl)-7-fluoro-1-methyl-2-(4-(methylsulfonyl)phenyl)-1H-benzo[d]imidazole], the IC50 against human TLR9 was 0.11 µM; at human TLR9 (setting [1]) it was 0.114 µM; on human TLR7, 21.3 µM; at human TLR8 it was above 50 µM.

As to `Cn1c(-c2ccc(S(C)(=O)=O)cc2)nc2cc(C3CCN(C4CCN(CC5CC5)CC4)CC3)cc(F)c21` [Example 203, 5-(1′-(cyclopropylmethyl)-[1,4′-bipiperidin]-4-yl)-7-fluoro-1-methyl-2-(4-(methylsulfonyl)phenyl)-1H-benzo[d]imidazole], the IC50 at human TLR9 was 0.11 µM; at human TLR9 (setting [1]), 0.108 µM; at human TLR7 it was 15.4 µM; at human TLR8, above 50 µM.

On to `Cc1cc(C2CCN(C3CCN(CC(C)C)CC3)CC2)cc2c1nc(-c1ccc(S(C)(=O)=O)c(F)c1)n2C` [Example 343, 2-(3-fluoro-4-(methylsulfonyl)phenyl)-6-(1′-isobutyl-[1,4′-bipiperidin]-4-yl)-1,4-dimethyl-1H-benzo[d]imidazole], for which the IC50 on human TLR9 (setting [1]) is 0.156 µM; on human TLR9 (setting [2]), 0.16 µM; at human TLR7, 12.6 µM; on human TLR8 it was above 25 µM.

Consider `Cc1cc(C2CCN(C3CCCN(C4COC4)CC3)CC2)cc2c1nc(-c1ccc(S(C)(=O)=O)cc1)n2C` (centres unmarked) [Example 305, 1,4-dimethyl-2-(4-(methylsulfonyl)phenyl)-6-(1-(1-(oxetan-3-yl)azepan-4-yl)piperidin-4-yl)-1H-benzo[d]imidazole], for which the IC50 on human TLR9 (setting [1]) is 0.09 µM; on human TLR9 (setting [2]) it was 0.09 µM; on human TLR7, 8.6 µM; on human TLR8, above 50 µM.

As to `Cc1cc(-c2ccc(CN3CCC(N(C)C)CC3)c(F)c2)cc2c1nc(-c1ccc(S(C)(=O)=O)cc1)n2C` [Example 390, 1-(4-(1,4-dimethyl-2-(4-(methylsulfonyl)phenyl)-1H-benzo[d]imidazol-6-yl)-2-fluorobenzyl)-N,N-dimethylpiperidin-4-amine], the IC50 was determined as 0.091 µM at human TLR9 (setting [3]), 0.091 µM at human TLR9 (setting [1]), 4.2 µM at human TLR7 and 10.2 µM on human TLR8.

On to `Cc1cc(C2CCN(C3CCN(C(C)C)CC3)CC2)cc2c1nc(-c1ccc(S(N)(=O)=O)cc1)n2C` [Example 112, 4-(6-(1′-isopropyl-[1,4′-bipiperidin]-4-yl)-1,4-dimethyl-1H-benzo[d]imidazol-2-yl)benzenesulfonamide], for which the IC50 on human TLR9 (setting [3]) was 0.13 µM; on human TLR9 (setting [1]), 0.127 µM; at human TLR7 it was above 50 µM; at human TLR8 it was above 50 µM.

Regarding `Cn1c(-c2ccc(S(C)(=O)=O)cc2)nc2c(F)cc(C3CCN(C4CCCN(C5COC5)CC4)CC3)cc21` (single isomer, unassigned) [Example 109, 4-fluoro-1-methyl-2-(4-(methylsulfonyl)phenyl)-6-(1-(1-(oxetan-3-yl)azepan-4-yl)piperidin-4-yl)-1H-benzo[d]imidazole], the 50% inhibitory concentration (IC50) on human TLR9 (setting [3]) was 0.09 µM; at human TLR7 it was 17.2 µM; at human TLR8 it was above 50 µM.

As to `COCCN1CCCC(N2CCC(c3cc(F)c4nc(-c5ccc(S(C)(=O)=O)cc5)n(C)c4c3)CC2)CC1` (single isomer, unassigned) [Example 303, 4-fluoro-6-(1-(1-(2-methoxyethyl)azepan-4-yl)piperidin-4-yl)-1-methyl-2-(4-(methylsulfonyl)phenyl)-1H-benzo[d]imidazole], the IC50 is 0.014 µM at human TLR9 (setting [1]), 0.014 µM against human TLR9 (setting [2]), 4.2 µM on human TLR7 and above 50 µM at human TLR8.

Take `COc1ccc(-c2nc3c(C)cc(C4CCN(C5CCN(CC(C)C)CC5)CC4)cc3n2C)cc1OC` [Example 15, 2-(3,4-dimethoxyphenyl)-6-(1′-isobutyl-[1,4′-bipiperidin]-4-yl)-1,4-dimethyl-1H-benzo[d]imidazole tris(2,2,2-trifluoroacetate)]: the IC50 at human TLR9 (setting [3]) was 0.019 µM; on human TLR7, 7.1 µM; on human TLR8, above 50 µM.
